Assay results published in patent US7879876B2, “Sulfonamide derivatives and use thereof for the modulation of metalloproteinases” (Merck Serono SA, priority 2005, dated 2011).

Experiments:
[1] = target: MMP13 (Homo sapiens, UniProt P45452); test: MMP13 inhibition (Table 1); assay type: biochemical; details: read-out: percentage inhibition MMP13
[2] = system: IL-2-induced peritoneal recruitment of lymphocytes; test: IL-2-induced peritoneal recruitment of lymphocytes; assay type: in vivo, C3H/HEN mice; details: Mus musculus, Lymphocyte, po; 3 mg/kg p.o., 15 min prior to IL-2; mice; 24 h after IL-2
Protocol: Administration of IL-2 intraperitoneally causes migration of lymphocytes into the intraperitoneal cavity. This is a model for the cellular migration that occurs during inflammation.
C3H/HEN mice (Elevage Janvier, France) were intraperitoneally injected with IL-2 (Serono Pharmaceutical Research Institute, 20 μg/kg, in saline). Compounds of the invention were suspended in 0.5% carboxymethylcellulose (CMC)/0.25% tween-20 and were administered by s.c. or p.o. route (10 ml/kg) 15 min prior to administration of IL-2.
Twenty-four hours after administration of IL-2, peritoneal white blood cells were collected by 3 successive lavages of the peritoneal cavity with 5 ml phosphate buffered saline (PBS)-1 mM EDTA (+4° C.). The suspension was centrifuged (1700 g×10 min at +4° C.). The resulting pellet was suspended in 1 ml PBS-1 mM EDTA.
Lymphocytes were identified and counted using a Beckman/Coulter counter.
The animals were divided into 6 groups (6 mice each group):
Group 1: (baseline) received 0.5% CMC/0.25% tween-20 (vehicle of compound of the invention) and saline (vehicle of IL-2);
Group 2: (control IL-2) received 0.5% CMC/0.25% tween-20 and injection of IL-2;
Group 3: Experimental group (Compound of the invention Dose 1) received a compound of the invention and injection of IL-2;
Group 4: Experimental group (Compound of the invention Dose 2) received a compound of the invention and injection of IL-2;
Group 5: Experimental group (Compound of the invention Dose 3) received a compound of the invention and injection of IL-2;
Group 6: Reference group received reference compound dexamethasone and injection of IL-2.
Inhibition of lymphocyte recruitment was calculated as follows:
Where Ly 1=Number of lymphocytes in group 1 (E3/μl), Ly 2=Number of lymphocytes in group 2 (E3/μl), Ly X=Number of lymphocytes in group X (3-5) (E3/μl).

| Structure (SMILES) | inhibition at 0.1 µM [1] [%] | inhibition at 5 µM [1] [%] | inhibition in vivo at 3 mg/kg [2] [%] |
| --- | --- | --- | --- |
| O=CN(O)C(CCc1ccccc1)CS(=O)(=O)N1Cc2ccccc2C1 (stereo not drawn) [Example 6, N-{1-[(1,3-dihydro-2H-isoindol-2-ylsulfonyl)methyl]-3-phenylpropyl}-N-hydroxyformamide] | 11 | 94 | 40 ± 6 |
| COc1cc2c(cc1OC)CN(S(=O)(=O)CC([C@H]1COC(C)(C)O1)N(O)C=O)CC2 (stereo partly drawn) [Example 14, N-{2-[(6,7-dimethoxy-3,4-dihydroisoquinolin-2(1H)-yl)sulfonyl]-1-[(4S)-2,2-dimethyl-1,3-dioxolan-4-yl]ethyl}-N-hydroxyformamide] | 5 | 68 | 50 ± 10 |
